PubChem BioAssay AID248 (DTP/NCI, 2004)
“And” between values parts separate entries of the source, which are not always exact repeats. Equal values may be shown once. Toxic doses and inconclusive results are not listed.

System: L1210 leukemia ip in BDF1 mice, survival T/C
Assay: NCI In Vivo Anticancer Drug Screen. Data for tumor model L1210 Leukemia (intraperitoneal) in B6D2F1 (BDF1) mice
Conditions: endpoint: mean survival time, higher = longer survival
In short: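 Mice bearing the transplanted tumor received compound or vehicle. Survival of the treated group was divided by that of the vehicle-treated control group to give the ratio.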

[1] = dose: 50.0 mg/kg/injection, schedule: Q01DX001 (ip), vehicle: carboxymethylcellulose (CMC)
[2] = dose: 100.0 mg/kg/injection, schedule: Q01DX001 (ip), vehicle: carboxymethylcellulose (CMC)
[3] = dose: 100.0 mg/kg/injection, schedule: Q01DX001 (ip), vehicle: saline
[4] = dose: 200.0 mg/kg/injection, schedule: Q01DX001 (ip), vehicle: carboxymethylcellulose (CMC)
[5] = dose: 200.0 mg/kg/injection, schedule: Q01DX001 (ip), vehicle: saline
[6] = dose: 400.0 mg/kg/injection, schedule: Q01DX001 (ip), vehicle: carboxymethylcellulose (CMC)
[7] = dose: 400.0 mg/kg/injection, schedule: Q01DX001 (ip), vehicle: saline
[8] = dose: 100.0 mg/kg/injection, schedule: Q04DX003 (ip), vehicle: Klucel (hydroxypropylcellulose) (HPC)
[9] = dose: 200.0 mg/kg/injection, schedule: Q04DX003 (ip), vehicle: Klucel (hydroxypropylcellulose) (HPC)
[10] = dose: 400.0 mg/kg/injection, schedule: Q04DX003 (ip), vehicle: Klucel (hydroxypropylcellulose) (HPC)
[11] = dose: 100.0 mg/kg/injection, schedule: Q04DX002 (ip), vehicle: saline with Tween-80
[12] = dose: 200.0 mg/kg/injection, schedule: Q04DX002 (ip), vehicle: saline with Tween-80
[13] = dose: 400.0 mg/kg/injection, schedule: Q04DX002 (ip), vehicle: saline with Tween-80
[14] = dose: 100.0 mg/kg/injection, schedule: Q04DX003 (ip), vehicle: saline
[15] = dose: 200.0 mg/kg/injection, schedule: Q04DX003 (ip), vehicle: saline
[16] = dose: 400.0 mg/kg/injection, schedule: Q04DX003 (ip), vehicle: saline
[17] = dose: 100.0 mg/kg/injection, schedule: Q01DX009 (ip), vehicle: saline with Tween-80
[18] = dose: 200.0 mg/kg/injection, schedule: Q01DX009 (ip), vehicle: saline with Tween-80
[19] = dose: 400.0 mg/kg/injection, schedule: Q01DX009 (ip), vehicle: saline with Tween-80

Cc1cn(C2OC(CO)C(O)C2O)c(=O)[nH]c1=O (stereo not drawn)
T/C (dose: 3.75 mg/kg/injection, schedule: Q01DX Z (ip), vehicle: saline): 86 % of control
T/C (dose: 6.25 mg/kg/injection, schedule: Q03HX024 (ip), vehicle: saline): 102 % of control
T/C (dose: 7.5 mg/kg/injection, schedule: Q01DX Z (ip), vehicle: saline): 88 % of control
T/C (dose: 12.5 mg/kg/injection, schedule: Q03HX024 (ip), vehicle: saline): 94 % of control
T/C (dose: 25.0 mg/kg/injection, schedule: Q03HX024 (ip), vehicle: saline): 107 % of control
T/C (dose: 30.0 mg/kg/injection, schedule: Q01DX Z (ip), vehicle: saline): 86 % of control
T/C [1]: 116 % of control
T/C (dose: 50.0 mg/kg/injection, schedule: Q03HX024 (ip), vehicle: saline): 102 % of control
T/C (dose: 60.0 mg/kg/injection, schedule: Q01DX Z (ip), vehicle: saline): 92 % of control
T/C [2]: 97 % of control
T/C [3]: 87 % of control
T/C [4]: 106 % of control
T/C [5]: 92 % of control
T/C [6]: 95 % of control
T/C [7]: 90 % of control

CS(=O)(=O)OC[C@@H](O)[C@@H](O)COS(C)(=O)=O
T/C (dose: 100.0 mg/kg/injection, schedule: Q01DX009 (ip), vehicle: saline sonified): 101 % of control
T/C (dose: 200.0 mg/kg/injection, schedule: Q01DX009 (ip), vehicle: saline sonified): 98 % of control
T/C (dose: 400.0 mg/kg/injection, schedule: Q01DX009 (ip), vehicle: saline sonified): 103 % of control

CCOC(=O)c1cnc(SC)nc1N1CCOCC1
T/C [8]: 98 % of control
T/C [9]: 93 % of control
T/C [10]: 100 % of control

CCN(CC)S(=O)(=O)CC
T/C [11]: 99 % of control
T/C [12]: 96 % of control
T/C [13]: 92 % of control

O=C(O)c1ccccc1NC(C(=O)O)c1ccccc1 (stereo not drawn)
T/C [11]: 100 % of control
T/C [12]: 96 % of control
T/C [13]: 96 % of control

Cc1ccc(C2C(C(=O)N3CCN(C)CC3)C2c2ccccc2)cc1 (stereo not drawn)
T/C (dose: 25.0 mg/kg/injection, schedule: Q04DX002 (ip), vehicle: saline): 98 % of control
T/C (dose: 50.0 mg/kg/injection, schedule: Q04DX002 (ip), vehicle: saline): 98 % of control
T/C (dose: 100.0 mg/kg/injection, schedule: Q04DX002 (ip), vehicle: saline): 95 % of control

CCOP(=O)(Nc1ccc2c(c1)/C(=N/NC(N)=S)c1ccccc1-2)OCC
T/C [1]: 100 % of control
T/C [2]: 94 % of control
T/C [4]: 96 % of control
T/C [6]: 89 % of control

COC(=O)CCC(NC(=O)C1CCN(C(=O)OCc2ccccc2)CC1)C(=O)OC (stereo not drawn)
T/C [3]: 99 % of control
T/C (dose: 100.0 mg/kg/injection, schedule: Q01DX009 (ip), vehicle: saline): 103 % of control
T/C (dose: 100.0 mg/kg/injection, schedule: Q04DX003 (ip), vehicle: acetone): 95 % of control
T/C [5]: 100 % of control
T/C (dose: 200.0 mg/kg/injection, schedule: Q01DX009 (ip), vehicle: saline): 102 % of control
T/C (dose: 200.0 mg/kg/injection, schedule: Q04DX003 (ip), vehicle: acetone): 98 % of control
T/C [7]: 94 % of control
T/C (dose: 400.0 mg/kg/injection, schedule: Q01DX009 (ip), vehicle: saline): 103 % of control
T/C (dose: 400.0 mg/kg/injection, schedule: Q04DX003 (ip), vehicle: acetone): 98 % of control

O=c1[nH]c(SCc2ccc([N+](=O)[O-])cc2)nc2ccccc12
T/C [8]: 111 % of control
T/C [9]: 102 % of control
T/C [10]: 94 % of control

CC12CC(O)C3C(CCC4CC(O)CCC43C)C1CCC2C(=O)CO (stereo not drawn)
T/C (dose: 100.0 mg/kg/injection, schedule: Q01DX001 (sc), vehicle: steriod suspending solution): 102 % of control
T/C (dose: 200.0 mg/kg/injection, schedule: Q01DX001 (sc), vehicle: steriod suspending solution): 104 % of control
T/C (dose: 400.0 mg/kg/injection, schedule: Q01DX001 (sc), vehicle: steriod suspending solution): 102 % of control

CCOC(=O)CC#N
T/C [14]: 103 % of control
T/C [15]: 103 % of control
T/C [16]: 102 % of control

Cc1nc(N)[nH]c(=O)c1NC(=O)c1ccc(N)cc1
T/C (dose: 12.5 mg/kg/injection, schedule: Q04DX002 (ip), vehicle: saline with Tween-80): 101 % of control
T/C (dose: 25.0 mg/kg/injection, schedule: Q04DX002 (ip), vehicle: saline with Tween-80): 96 % of control
T/C (dose: 50.0 mg/kg/injection, schedule: Q04DX002 (ip), vehicle: saline with Tween-80): 99 % of control

CC(=O)Nc1ccc(/C=N/NC(=O)CNC(=O)NCc2ccccc2)cc1
T/C (dose: 50.0 mg/kg/injection, schedule: Q01DX009 (ip), vehicle: saline with Tween-80): 95 % of control
T/C [17]: 89 % of control
T/C [18]: 89 % of control

C(=N/N=C(/C(=N/N=C/c1ccccc1)c1ccccc1)c1ccccc1)\c1ccccc1
T/C [3]: 94 % of control
T/C [5]: 95 % of control
T/C [7]: 97 % of control

NC1(C(=O)O)CCCc2ccc(N(CCCl)CCCl)cc21 (stereo not drawn)
T/C (dose: 0.45 mg/kg/injection, schedule: Q01DX009 (ip), vehicle: carboxymethylcellulose (CMC)): 101 % of control
T/C (dose: 0.95 mg/kg/injection, schedule: Q01DX009 (ip), vehicle: carboxymethylcellulose (CMC)): 124 % of control
T/C (dose: 1.8 mg/kg/injection, schedule: Q01DX009 (ip), vehicle: carboxymethylcellulose (CMC)): 119 % of control
T/C (dose: 6.0 mg/kg/injection, schedule: Q01DX001 (ip), vehicle: carboxymethylcellulose (CMC)): 121 % of control
T/C (dose: 8.3 mg/kg/injection, schedule: Q01DX009 (ip), vehicle: carboxymethylcellulose (CMC)): 152 % of control
T/C (dose: 10.8 mg/kg/injection, schedule: Q01DX009 (ip), vehicle: carboxymethylcellulose (CMC)): 168 % of control
T/C (dose: 11.0 mg/kg/injection, schedule: Q01DX001 (ip), vehicle: carboxymethylcellulose (CMC)): 114 % of control and 124 % of control
T/C (dose: 12.5 mg/kg/injection, schedule: Q01DX009 (ip), vehicle: carboxymethylcellulose (CMC)): 163 % of control and 165 % of control
T/C (dose: 16.0 mg/kg/injection, schedule: Q01DX001 (ip), vehicle: carboxymethylcellulose (CMC)): 112 % of control
T/C (dose: 18.0 mg/kg/injection, schedule: Q01DX009 (ip), vehicle: carboxymethylcellulose (CMC)): 161 % of control
T/C (dose: 48.0 mg/kg/injection, schedule: Q01DX001 (ip), vehicle: carboxymethylcellulose (CMC)): 114 % of control
T/C [1]: 123 % of control

FC(F)(F)c1ccc2c(c1)N(CCCN(CCCl)CCCl)c1ccccc1S2
T/C (dose: 3.12 mg/kg/injection, schedule: Q01DX001 (ip), vehicle: saline with Tween-80): 102 % of control
T/C (dose: 3.12 mg/kg/injection, schedule: Q01DX009 (ip), vehicle: saline with Tween-80): 102 % of control
T/C (dose: 6.25 mg/kg/injection, schedule: Q01DX001 (ip), vehicle: saline with Tween-80): 102 % of control
T/C (dose: 6.25 mg/kg/injection, schedule: Q01DX009 (ip), vehicle: saline with Tween-80): 98 % of control
T/C (dose: 12.5 mg/kg/injection, schedule: Q01DX001 (ip), vehicle: saline with Tween-80): 100 % of control
T/C (dose: 12.5 mg/kg/injection, schedule: Q01DX009 (ip), vehicle: saline with Tween-80): 100 % of control
T/C (dose: 12.5 mg/kg/injection, schedule: Q04DX003 (ip), vehicle: saline with Tween-80): 102 % of control
T/C (dose: 25.0 mg/kg/injection, schedule: Q04DX003 (ip), vehicle: saline with Tween-80): 113 % of control
T/C (dose: 50.0 mg/kg/injection, schedule: Q04DX003 (ip), vehicle: saline with Tween-80): 98 % of control
T/C (dose: 100.0 mg/kg/injection, schedule: Q04DX003 (ip), vehicle: saline with Tween-80): 113 % of control

C/C(=N/O)c1ccc(O)cc1
T/C [17]: 103 % of control
T/C [18]: 96 % of control
T/C [19]: 97 % of control

COc1ccc2c(c1)CC[C@@H]1[C@@H]2CC[C@]2(C)[C@@H](O)C(=O)C[C@@H]12
T/C [17]: 90 % of control
T/C [14]: 94 % of control
T/C [18]: 92 % of control
T/C [15]: 88 % of control
T/C [19]: 90 % of control
T/C [16]: 91 % of control

CS(=O)(=O)c1ccc2c(c1)-c1ccccc1C2=O
T/C [2]: 96 % of control
T/C [4]: 104 % of control
T/C [6]: 98 % of control

O=[N+]([O-])c1ccnc(NC2CCCCC2)c1
T/C [3]: 97 % of control
T/C [5]: 96 % of control
T/C [7]: 96 % of control
